Values after ≈ are worked out from the molar mass of the structure shown. Values joined by “and” are separate entries in the source; they are usually repeats but may differ in a detail not shown here. Identical values can stand only once. “Also recorded” adds a separate entry of the source. Like-named read-outs stand apart in the source and are kept apart here.
How the values were obtained:
[1] = Cytotoxicity of nucleoside analogues in HeLa cell cultures; type: cell-based; conditions: human, hela cells
Text: (§1) Cytotoxicity of nucleoside analogues at concentra-
(§2) tions of CTo and CT50 in various cell cultures in […]

Herpes simplex type 1 = assay: Effect of nucleoside analogues on virus multiplication in cell cultures at concentrations of CTo: Herpes simplex type 1 in HeLa cell culture; type: cell-based, Herpes simplex virus type 1
Procedure: The testing of antiviral activity was carried out according to the following considerations:
According to the literature the major part of antiviral nucleoside analogues is presumed to exert its "antiviral potency" by interfering with the functioning of the host cell which as a result fails to promote intracellular virus multiplication (it is a well known fact that virus multiplication requires a well functioning host cell).
Effect of nucleoside analogues on virus multiplica-
tion in cell cultures at concentrations of CTo
^1 = type 1 in HeLa cell culture

[2] = tested on: type 1 Herpes simplex virus; assay: Inhibitory effect of nucleoside analogues on multiplication of type 1 Herpes simplex in HeLa cell culture (virus titer, TCID50); type: cell-based, Herpes simplex virus type 1; conditions: for log TCID50, average: average of individual experiments; for Δ log TCID50, average / Δ log TCID50: difference from control; for antiviral (anti-herpes) effect in words: in vitro, tissue culture
Text: (§3) A method was developed for the testing of the antiviral activity of various drugs in solution which is suitable for the exact, sensitive and objective in vitro assay of drug activity exerted on the cells and tissues of both warm-blooded animals and men [Toxicology 16, 59 (1980)]. The method is also suitable for calculating from the test data the highest concentration of the test drug in the tissue culture medium which is not impairing the tissue yet (CTo).
The difference in the logarithm of virus titers may be considered the objective indicator of the rate of inhibition of virus multiplication.

[3] = Cytotoxicity of nucleoside analogues in RK-13 cell cultures; type: cell-based; conditions: rabbit, rk-13 cells
Text: as §1, §2

[4] = Cytotoxicity of nucleoside analogues in BHK-21 cell cultures; type: cell-based; conditions: hamster, bhk-21 cells
Text: as §1, §2

[5] = Cytotoxicity of nucleoside analogues in Vero cell cultures; type: cell-based; conditions: monkey, vero cells
Text: as §1, §2

tissue culture = assay: Comparative toxicity in tissue culture
Text: as §3

Herpes simplex virus = conditions: literature; cited from earlier work
Water solubility = type: physicochemical; conditions: i.v. trial limited
[6] = individual experiments, HeLa, concentration of CTo
[7] = read-out: CT50 (the source's name) (converted)

Procedure for mice: Solvent: 20 percent aqueous dimethylsulfoxide
Acute toxicity after a single dose
/measured after 24 hours/
Dose Number of dead/treated animals

Compound: Nc1nc(=O)n([C@H]2C[C@H](O)[C@@H](CO)O2)cc1I [D, 5iodo-2deoxy-cytidine]
- CC50 [1]: 7.94 µg/mL (≈ 22.5 µM)
- MNTC [1]: 0.01 µg/mL

Compound: O=c1[nH]c(=O)n([C@H]2C[C@H](O)[C@@H](CO)O2)cc1/C=C/Br [B, (E)-5-(2-bromovinyl)-2'-deoxy-uridine, reference compound]
- Effect on virus multiplication, Herpes simpl. (Herpes simplex type 1): ++++
- log TCID50, average ([2]; HeLa, concentration of CTo): 2.26
- Δ log TCID50, average ([2]; HeLa, concentration of CTo): 3.53
- antiviral (anti-herpes) effect in words [2]: marked antiviral effect in vitro
- Δ log TCID50 [2, 6]: 3.33 and 3.84 and 3.78 and 3.17
- MNTC ([1]; HeLa, highest concentration not impairing the tissue, read-out: CTo (converted)): 39.8 µg/mL
- CC50 [1, 7]: 251 µg/mL (≈ 754 µM)
- MNTC ([3]; RK-13, highest concentration not impairing the tissue, read-out: CTo (converted)): 20 µg/mL
- CC50 [3, 7]: 794 µg/mL (≈ 2380 µM)
- MNTC ([4]; BHK-21, highest concentration not impairing the tissue, read-out: CTo (converted)): 316 µg/mL
- CC50 [4, 7]: 794 µg/mL (≈ 2380 µM)
- MNTC ([5]; Vero, highest concentration not impairing the tissue, read-out: CTo (converted)): 39.8 µg/mL
- CC50 [5, 7]: 316 µg/mL (≈ 949 µM)
- effect on cells and tissues used for culturing (tissue culture; at concentrations as low as CTo): without impairing the cells and tissues used for culturing
- Number of dead/treated animals (mice; i.p., 500 mg/kg single dose, 24 hours): 0/5
- Number of dead/treated animals (mice; i.p., 750 mg/kg single dose, 24 hours): 2/5
- Number of dead/treated animals (mice; i.p., 1000 mg/kg single dose (aqueous suspension), 24 hours): 5/5
- Number of dead/treated animals (mice; i.v., 300 mg/kg single dose, 24 hours): 1/5
- Number of dead/treated animals (mice; per os, 1000 mg/kg single dose (aqueous suspension), 24 hours): 0/5
- Number of dead/treated animals (mice; per os, 1500 mg/kg single dose (aqueous suspension), 24 hours): 0/5
- antiviral / anti-herpes activity in words (Herpes simplex virus): marked anti-herpes potency

Compound: O=c1[nH]c(=O)n([C@H]2C[C@H](O)[C@@H](CO)O2)cc1I [C, 5iodo-2deoxy-uridine]
- CC50 [1]: 20 µg/mL (≈ 56.3 µM)
- MNTC [1]: 0.0398 µg/mL
- CC50 [3]: 79.4 µg/mL (≈ 224 µM)
- MNTC [3]: 5.01 µg/mL
- CC50 [4]: 6.31 µg/mL (≈ 17.8 µM)
- MNTC [4]: 0.1 µg/mL
- CC50 [5]: 39.8 µg/mL (≈ 112 µM)
- MNTC [5]: 31.6 µg/mL

Compound: O=c1[nH]c(=O)n([C@@H]2O[C@H](CO)[C@@H](O)[C@H]2O)cc1/C=C/Br [A, (E)-5-(2-Bromovinyl)-uridine]
- Effect on virus multiplication, Herpes simpl. (Herpes simplex type 1): ++++
- log TCID50, average ([2]; HeLa, concentration of CTo): 2.66
- Δ log TCID50, average ([2]; HeLa, concentration of CTo): 3.16
- antiviral (anti-herpes) effect in words ([2]; listed as (E)-5-(2-Bromovinyl)-uridine): very active in inhibiting the multiplication of type 1 Herpes simplex virus
- antiviral (anti-herpes) effect in words ([2]; listed as (E)-5-(2-bromovinyl)-uridine): marked antiviral effect in vitro; also recorded: significantly reduced
- antiviral (anti-herpes) effect in words ([2]; listed as ribonucleoside of (E)-5-(2-bromovinyl)-uracil base): similarly high anti-herpes potency
- log TCID50 [2, 6]: 2.77 and 2.5 and 3.0 and 2.33
- Δ log TCID50 [2, 6]: 3.23 and 3.33 and 3.25 and 3.0 and 3.16 and 3.17
- CC50 [1]: 398 µg/mL (≈ 1140 µM)
- MNTC [1]: 100 µg/mL
- CC50 [3]: 501 µg/mL (≈ 1440 µM)
- MNTC [3]: 39.8 µg/mL
- CC50 [4]: 501 µg/mL (≈ 1440 µM)
- MNTC [4]: 126 µg/mL
- CC50 [5]: 398 µg/mL (≈ 1140 µM)
- MNTC [5]: 100 µg/mL
- water solubility (Water solubility): poor water solubility
- effect on cells and tissues used for culturing (tissue culture): without impairing the cells and tissues used for culturing
- Number of dead/treated animals (mice; mouse, in vivo, 1000 mg/kg): 0/5
- Number of dead/treated animals (mice; mouse, in vivo, 1500 mg/kg): 0/5
- Number of dead/treated animals (mice; mouse, in vivo, ip, 500 mg/kg): 0/5
- Number of dead/treated animals (mice; mouse, in vivo, ip, 750 mg/kg): 0/5
- Number of dead/treated animals (mice; mouse, in vivo, ip, 1000 mg/kg): 4/5
- Number of dead/treated animals (mice; mouse, in vivo, iv, 300 mg/kg): 0/5
